Assay results published in patent US20230079819A1, “COMPOUNDS AND USES THEREOF” (Foghorn Therapeutics Inc., priority 2019, published 2023).
Like-named read-outs stand apart in the source and are kept apart here.

How the values were obtained:
BRM = biological target: T1, BRM (Homo sapiens, UniProt P51531); test: ATPase catalytic activity of BRM, ADP-Glo in vitro biochemical assay; conditions: 30 nM BRM, 400 μM ATP
T1 construct: made in house; host or cells: High Five insect cells

BRG-1 = biological target: T2, BRG-1 (Homo sapiens, UniProt P51532); test: ATPase catalytic activity of BRG-1, ADP-Glo in vitro biochemical assay; conditions: 30 nM BRG-1, 400 μM ATP
T2 construct: made in house; host or cells: High Five insect cells

[1] = ATPase catalytic activity, read-out: BRM IP50 (μM)*
[2] = ATPase catalytic activity, read-out: BRG1 IP50 (μM)*
[3] = ATPase catalytic activity, read-out: BRM IP50
[4] = ATPase catalytic activity, read-out: BRG1 IP50

T2 sequence (P51532 whole entry): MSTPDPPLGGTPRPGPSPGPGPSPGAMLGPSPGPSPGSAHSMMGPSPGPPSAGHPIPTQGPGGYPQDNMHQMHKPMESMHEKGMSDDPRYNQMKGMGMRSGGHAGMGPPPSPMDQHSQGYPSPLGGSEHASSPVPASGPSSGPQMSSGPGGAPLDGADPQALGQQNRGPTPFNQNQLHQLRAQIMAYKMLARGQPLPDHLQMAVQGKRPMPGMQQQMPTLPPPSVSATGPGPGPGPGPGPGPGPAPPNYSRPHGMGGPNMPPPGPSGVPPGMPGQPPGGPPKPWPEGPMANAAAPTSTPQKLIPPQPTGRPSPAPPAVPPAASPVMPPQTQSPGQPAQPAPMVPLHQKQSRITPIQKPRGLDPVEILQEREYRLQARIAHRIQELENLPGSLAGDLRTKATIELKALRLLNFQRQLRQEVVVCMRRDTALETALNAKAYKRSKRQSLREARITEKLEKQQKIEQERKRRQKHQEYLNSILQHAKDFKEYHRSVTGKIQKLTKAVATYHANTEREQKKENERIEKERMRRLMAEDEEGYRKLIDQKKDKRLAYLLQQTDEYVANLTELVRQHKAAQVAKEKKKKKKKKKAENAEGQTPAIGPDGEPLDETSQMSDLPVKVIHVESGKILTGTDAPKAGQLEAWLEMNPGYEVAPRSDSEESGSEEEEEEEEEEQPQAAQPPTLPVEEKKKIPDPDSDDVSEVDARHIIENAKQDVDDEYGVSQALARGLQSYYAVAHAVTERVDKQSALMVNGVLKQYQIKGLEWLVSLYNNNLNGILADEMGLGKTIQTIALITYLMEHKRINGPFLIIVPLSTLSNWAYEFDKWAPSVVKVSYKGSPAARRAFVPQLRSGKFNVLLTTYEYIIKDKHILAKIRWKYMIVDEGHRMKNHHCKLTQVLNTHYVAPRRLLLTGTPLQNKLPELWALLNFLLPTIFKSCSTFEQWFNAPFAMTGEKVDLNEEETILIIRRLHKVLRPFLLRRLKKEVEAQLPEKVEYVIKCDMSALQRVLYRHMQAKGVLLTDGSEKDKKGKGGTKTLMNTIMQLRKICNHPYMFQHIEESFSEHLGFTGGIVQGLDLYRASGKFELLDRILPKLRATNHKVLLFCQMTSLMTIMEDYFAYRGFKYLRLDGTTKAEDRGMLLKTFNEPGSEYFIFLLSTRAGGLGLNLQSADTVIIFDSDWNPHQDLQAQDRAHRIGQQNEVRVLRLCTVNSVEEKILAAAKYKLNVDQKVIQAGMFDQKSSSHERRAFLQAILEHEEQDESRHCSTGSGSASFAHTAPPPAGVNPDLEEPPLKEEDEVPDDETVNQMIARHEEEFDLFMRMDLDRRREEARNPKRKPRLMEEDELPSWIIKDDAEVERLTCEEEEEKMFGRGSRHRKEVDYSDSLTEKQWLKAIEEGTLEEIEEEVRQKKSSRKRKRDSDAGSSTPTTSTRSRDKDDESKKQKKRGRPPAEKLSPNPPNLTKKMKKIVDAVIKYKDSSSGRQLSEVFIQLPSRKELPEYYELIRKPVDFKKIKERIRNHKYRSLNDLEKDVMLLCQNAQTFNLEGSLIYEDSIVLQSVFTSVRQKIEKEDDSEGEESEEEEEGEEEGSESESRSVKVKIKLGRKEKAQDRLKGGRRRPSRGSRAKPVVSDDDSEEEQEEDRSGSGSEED
T1 sequence (P51531 whole entry): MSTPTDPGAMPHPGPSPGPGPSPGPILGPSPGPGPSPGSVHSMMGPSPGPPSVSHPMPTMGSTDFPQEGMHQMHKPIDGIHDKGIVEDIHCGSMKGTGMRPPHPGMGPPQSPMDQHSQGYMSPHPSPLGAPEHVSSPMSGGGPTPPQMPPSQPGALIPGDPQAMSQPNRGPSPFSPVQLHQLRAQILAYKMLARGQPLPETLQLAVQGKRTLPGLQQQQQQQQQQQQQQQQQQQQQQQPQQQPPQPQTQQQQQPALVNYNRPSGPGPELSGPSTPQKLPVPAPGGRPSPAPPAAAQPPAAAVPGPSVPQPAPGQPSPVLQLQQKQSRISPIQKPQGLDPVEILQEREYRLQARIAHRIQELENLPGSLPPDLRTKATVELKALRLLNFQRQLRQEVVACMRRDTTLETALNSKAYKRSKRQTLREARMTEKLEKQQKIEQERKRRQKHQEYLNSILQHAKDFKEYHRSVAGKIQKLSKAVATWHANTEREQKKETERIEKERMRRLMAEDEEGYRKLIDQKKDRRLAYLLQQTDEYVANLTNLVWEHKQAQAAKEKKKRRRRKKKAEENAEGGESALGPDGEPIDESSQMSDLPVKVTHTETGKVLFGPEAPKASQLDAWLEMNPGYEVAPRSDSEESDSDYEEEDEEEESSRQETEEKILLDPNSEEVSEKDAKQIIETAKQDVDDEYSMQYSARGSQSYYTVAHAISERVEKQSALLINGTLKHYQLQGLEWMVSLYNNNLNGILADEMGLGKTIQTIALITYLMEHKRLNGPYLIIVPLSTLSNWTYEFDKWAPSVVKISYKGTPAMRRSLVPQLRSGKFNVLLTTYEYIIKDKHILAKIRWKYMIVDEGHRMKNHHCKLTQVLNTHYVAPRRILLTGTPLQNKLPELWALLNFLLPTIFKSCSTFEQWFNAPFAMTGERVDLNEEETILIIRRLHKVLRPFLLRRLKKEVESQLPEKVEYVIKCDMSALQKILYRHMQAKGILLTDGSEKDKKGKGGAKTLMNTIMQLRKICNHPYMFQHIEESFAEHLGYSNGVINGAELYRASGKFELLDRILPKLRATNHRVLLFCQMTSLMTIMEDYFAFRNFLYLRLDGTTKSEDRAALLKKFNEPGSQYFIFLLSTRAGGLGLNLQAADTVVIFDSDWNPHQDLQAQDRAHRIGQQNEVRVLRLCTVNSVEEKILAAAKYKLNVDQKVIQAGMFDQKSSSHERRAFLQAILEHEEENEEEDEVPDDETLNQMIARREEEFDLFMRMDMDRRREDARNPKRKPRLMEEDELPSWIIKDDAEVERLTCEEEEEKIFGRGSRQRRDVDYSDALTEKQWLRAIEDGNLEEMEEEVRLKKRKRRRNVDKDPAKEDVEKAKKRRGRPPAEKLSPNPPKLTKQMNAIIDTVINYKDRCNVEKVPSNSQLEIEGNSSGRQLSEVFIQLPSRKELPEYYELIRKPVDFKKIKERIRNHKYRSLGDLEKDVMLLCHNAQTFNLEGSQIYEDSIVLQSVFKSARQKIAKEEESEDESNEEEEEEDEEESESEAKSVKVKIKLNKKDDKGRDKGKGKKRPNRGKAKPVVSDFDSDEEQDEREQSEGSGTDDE

Structure (SMILES) | IC50 (BRM; [1]) [µM] | IC50 (BRG-1; [2]) [µM] | IC50 (BRM; [3]) [µM] | IC50 (BRG-1; [4]) [µM] | other results
CS(=O)(=O)n1ccc(C(=O)NCC(=O)Nc2nc(-c3ccn(-c4ccncc4)n3)cs2)c1 [Compound 113, 1-(methylsulfonyl)-N-(2-oxo-2-((4-(1-(pyridin-4-yl)-1H-pyrazol-3-yl)thiazol-2-yl)amino)ethyl)-1H-pyrrole-3-carboxamide] | > 0.1 | > 0.1 |  |  | 
Cc1cc(N2CCN(c3cccc(-c4csc(NC(=O)CNC(=O)c5ccn(C(C)(C)C)c5)n4)n3)CC2)ccn1 [Compound 678] |  |  | > 0.1 | > 0.1 | 
CN(C)[C@H]1CCN(c2cccc(-c3csc(NC(=O)CNC(=O)c4ccn(C(C)(C)C)c4)n3)n2)C1 [Compound 623] |  |  | > 0.1 | > 0.1 | 
C[C@@]1(n2ccc(C(=O)NCC(=O)Nc3nc(-c4cccc(N5CCC5)c4)cs3)c2)CC1(F)F [Compound 651] |  |  | > 0.1 | > 1 | 
CC(C)n1ccc(C(=O)NCC(=O)Nc2nc(-c3cccc(-c4ccn(C)n4)c3)cs2)c1 [Compound 2, 1-isopropyl-N-(2-((4-(3-(1-methyl-1H-pyrazol-3-yl)phenyl)thiazol-2-yl)amino)-2-oxoethyl)-1H-pyrrole-3-carboxamide] | > 0.01 | > 0.01 |  |  | 
C[C@H](NC(=O)c1ccn(C2(C#N)CC2)n1)C(=O)Nc1nc(-c2ccc3ccn(C)c(=O)c3c2)cs1 [Compound 805] |  |  |  |  | IC50 (BRM; read-out: BRM IP50): > 0.1 µM; IC50 (BRG-1; read-out: BRG1 IP50): > 0.1 µM
CS(=O)(=O)n1ccc(C(=O)NCC(=O)Nc2nc(-c3cccc(C45CCOCC4C5)n3)cs2)c1 (stereo not drawn) [Compound 750, 1-methylsulfonyl-N-[2-[[4-[6-(3-oxabicyclo[4.1.0]heptan-6-yl)-2-pyridyl]thiazol-2-yl]amino]-2-oxo-ethyl]pyrrole-3-carboxamide] |  |  | > 0.01 | > 0.01 | 
CC(C)(C)n1ccc(C(=O)NCC(=O)Nc2nc(-c3cccc(N4CCC(F)C4)n3)cs2)c1 (stereo not drawn) [Compound 675] |  |  | > 0.01 | > 0.01 | 
CC(C)(C)n1ccc(C(=O)NCC(=O)Nc2nc(-c3cccc(N4CCC(O)CC4)n3)cs2)c1 [Compound 314] | > 0.01 | > 0.01 |  |  | 
CO[C@H]1C[C@H](Oc2cccc(-c3csc(NC(=O)CNC(=O)c4ccn(S(C)(=O)=O)c4)n3)c2)C1 [Compound 252] | > 0.01 | > 0.01 |  |  | 
Cn1ncc2ccc(-c3csc(NC(=O)CNC(=O)c4ccn(C(C)(C)C)c4)n3)cc21 [Compound 131, 1-(tert-butyl)-N-(2-((4-(1-methyl-1H-indazol-6-yl)thiazol-2-yl)amino)-2-oxoethyl)-1H-pyrrole-3-carboxamide] | > 0.01 | > 0.1 |  |  | 
CS(=O)(=O)n1ccc(C(=O)N[C@@H](CO)C(=O)Nc2nc(-c3cccc(-c4ccncc4)c3)cs2)c1 [Compound 69, (S)—N-(3-hydroxy-1-oxo-1-((4-(3-(pyridin-4-yl)phenyl)thiazol-2-yl)amino)propan-2-yl)-1-(methylsulfonyl)-1H-pyrrole-3-carboxamide] | < 0.01 | < 0.01 |  |  | 
CS(=O)(=O)n1ccc(C(=O)NCC(=O)Nc2nc(-c3cc(F)c4ccoc4c3)cs2)c1 [Compound 253] | > 0.01 | > 0.01 |  |  | 
CCS(=O)(=O)n1ccc(C(=O)NCC(=O)Nc2nc(-c3cccc(N4CCC(O)CC4)c3)cs2)c1 [Compound 209] | > 0.01 | > 0.01 |  |  | 
CS(=O)(=O)n1ccc(C(=O)NCC(=O)Nc2nc(-c3cccc(N4CC5CC(C4)O5)c3)cs2)c1 [Compound 230] | > 0.01 | > 0.1 |  |  | 
C[C@@H]1CN(c2cncc(-c3csc(NC(=O)CNC(=O)c4ccn(C(C)(C)C)c4)n3)n2)C[C@H](C)O1 [Compound 705] |  |  | > 0.01 | > 0.01 | 
CS(=O)(=O)n1ccc(C(=O)NCC(=O)Nc2nc(-c3ccc(F)c(OC4CC4)c3F)cs2)c1 [Compound 612] |  |  | > 0.01 | > 0.01 | 
COC[C@H](NC(=O)c1ccn(C2(C#N)CC2)c1)C(=O)Nc1nc(-c2ccc3ccn(C)c(=O)c3c2)cs1 [Compound 526] |  |  | > 0.01 | > 0.01 | 
CS(=O)(=O)n1ccc(C(=O)NCC(=O)Nc2nc(-c3cccc(-c4ccnc(N)c4)c3)cs2)c1 [Compound 9, N-(2-((4-(3-(2-aminopyridin-4-yl)phenyl)thiazol-2-yl)amino)-2-oxoethyl)-1-(methylsulfonyl)-1H-pyrrole-3-carboxamide] | < 0.01 | < 0.01 |  |  | 
CC(C)(C)n1ccc(C(=O)NCC(=O)Nc2nc(-c3cccc(N4CCN(c5cccnn5)CC4)n3)cs2)c1 [Compound 627] |  |  | > 0.01 | > 0.1 | 
Cc1nnc(C2CCN(c3cccc(-c4csc(NC(=O)CNC(=O)c5ccn(C(C)(C)C)c5)n4)n3)CC2)o1 [Compound 630] |  |  | > 0.01 | > 0.01 | 
CS(=O)(=O)n1ccc(C(=O)NCC(=O)Nc2nc(-c3cccc(-c4ccnc(C5(C(=O)O)CC5)c4)c3)cs2)c1 [Compound 14, 1-(4-(3-(2-(2-(1-(methylsulfonyl)-1H-pyrrole-3-carboxamido)acetamido)thiazol-4-yl)phenyl)pyridin-2-yl)cyclopropanecarboxylic acid] | < 0.01 | < 0.01 |  |  | 
COC[C@H](NC(=O)c1ccn(C2(C#N)CCC2)c1)C(=O)Nc1nc(-c2cccc(N3C[C@@H](C)O[C@@H](C)C3)n2)cs1 [Compound 730] |  |  | < 0.01 | < 0.01 | 
C[C@@H]1CN(c2cccc(-c3csc(NC(=O)CNC(=O)c4ccn(C5COC5)c4)n3)c2)C[C@H](C)O1 [Compound 229] | > 0.1 | > 0.1 |  |  | 
Cn1ccc(-c2cccc(-c3csc(NC(=O)CNC(=O)c4ccn(C(C)(C)C#N)n4)n3)c2)n1 [Compound 790] |  |  |  |  | IC50 (BRM; read-out: BRM IP50): > 0.01 µM; IC50 (BRG-1; read-out: BRG1 IP50): > 0.01 µM
C[C@@H]1CN(c2cccc(-c3csc(NC(=O)CNC(=O)c4ncc(C5(C)COC5)o4)n3)n2)C[C@H](C)O1 [Compound 826] |  |  |  |  | IC50 (BRM; read-out: BRM IP50): > 0.01 µM; IC50 (BRG-1; read-out: BRG1 IP50): > 0.01 µM
CS(=O)(=O)n1ccc(C(=O)NCC(=O)Nc2nc(-c3cccc([C@H]4CC4(F)F)c3)cs2)c1 [Compound 576] |  |  | < 0.01 | > 0.01 | 
CC1COc2ccc(-c3csc(NC(=O)CNC(=O)c4ccn(S(C)(=O)=O)c4)n3)cc2N1C (stereo not drawn) [Compound 478] |  |  | > 0.01 | > 0.01 | 
CS(=O)(=O)n1ccc(C(=O)NCC(=O)Nc2nc(-c3cc(F)cc(OC4CC4)c3)cs2)c1 [Compound 455] |  |  | > 0.01 | > 0.01 | 
CO[C@@H]1CCN(c2cccc(-c3csc(NC(=O)CNC(=O)c4ccn(S(C)(=O)=O)c4)n3)c2)C1 [Compound 226] | < 0.01 | > 0.01 |  |  | 

Now from value to compound, other results behind:

IC50 (BRM; [1]) [µM] | IC50 (BRG-1; [2]) [µM] | IC50 (BRM; [3]) [µM] | IC50 (BRG-1; [4]) [µM] | Structure (SMILES) | other results
> 0.01 | > 0.01 |  |  | C[C@@H]1CN(c2cccc(-c3csc(NC(=O)CNC(=O)c4ccn(C(C)(C)C)c4)n3)c2F)C[C@H](C)O1 [Compound 269] | 
 |  | > 0.01 | > 0.01 | C[C@@H]1CN(c2cccc(-c3csc(NC(=O)CNC(=O)c4ccn([C@@]5(C)CCOC5)c4)n3)n2)C[C@H](C)O1 (single isomer, unassigned) [Compound 491] | 
 |  | > 0.1 | > 0.1 | C[C@@H]1CN(c2cccc(-c3csc(NC(=O)CNC(=O)c4ccn(S(C)(=O)=O)c4)n3)c2)[C@@H](C)CO1 [Compound 471] | 
> 0.01 | > 0.01 |  |  | Cn1ccc(-c2cccc(-c3csc(NC(=O)CNC(=O)c4ccn(C(C)(C)C)c4)n3)n2)n1 [Compound 145] | 
> 0.01 | > 0.01 |  |  | CO[C@H]1CCN(c2cccc(-c3csc(NC(=O)CNC(=O)c4ccn(S(C)(=O)=O)c4)n3)c2)C1 [Compound 224] | 
 |  | > 0.01 | > 0.01 | CS(=O)(=O)n1ccc(C(=O)NCC(=O)Nc2nc(-c3cccc(N4CC[C@H](N)C(F)(F)C4)c3)cs2)c1 [Compound 552] | 
 |  | > 0.01 | > 0.01 | C[C@H](NC(=O)c1ccn(C2(C#N)CC2)c1)C(=O)Nc1nc(-c2ccc3ccn(C)c(=O)c3c2)cs1 [Compound 532] | 
 |  | > 0.1 | > 0.1 | CC(C)(C)n1ccc(C(=O)NCC(=O)Nc2nc(-c3cccc(N4CCCC5(CCCO5)C4)n3)cs2)c1 (stereo not drawn) [Compound 669] | 
 |  | < 0.01 | < 0.01 | COC[C@H](NC(=O)c1ccn(S(C)(=O)=O)c1)C(=O)Nc1nc(-c2cc(F)cc(-c3cnn(C)n3)c2)cs1 [Compound 738] | 
> 0.01 | > 0.01 |  |  | CC(C)(C)n1ccc(C(=O)NCC(=O)Nc2nc(-c3cccc(N4CC5(COC5)C4)c3)cs2)c1 [Compound 245] | 
> 0.1 | > 0.1 |  |  | Cc1nccn1-c1cccc(-c2csc(NC(=O)CNC(=O)c3ccn(S(C)(=O)=O)c3)n2)c1 [Compound 115, N-(2-((4-(3-(2-methyl-1H-imidazol-1-yl)phenyl)thiazol-2-yl)amino)-2-oxoethyl)-1-(methylsulfonyl)-1H-pyrrole-3-carboxamide] | 
 |  | > 0.01 | > 0.01 | CC(C)(C)n1ccc(C(=O)NCC(=O)Nc2nc(-c3cccc(N4CCC5(CCCCO5)C4)n3)cs2)c1 (stereo not drawn) [Compound 631] | 
> 0.1 | > 1 |  |  | COCC(C)(C)n1ccc(C(=O)NCC(=O)Nc2nc(-c3cccc(-c4ccn(C)n4)c3)cs2)c1 [Compound 27, 1-(1-methoxy-2-methylpropan-2-yl)-N-(2-((4-(3-(1-methyl-1H-pyrazol-3-yl)phenyl)thiazol-2-yl)amino)-2-oxoethyl)-1H-pyrrole-3-carboxamide] | 
 |  | < 0.01 | < 0.01 | COC[C@H](NC(=O)c1ccn(C(C)(C)C#N)c1)C(=O)Nc1nc(-c2cccc(-c3cnn(C)n3)c2)cs1 [Compound 615] | 
> 0.01 | > 0.01 |  |  | CN1CCCc2ccc(-c3csc(NC(=O)CNC(=O)c4ccn(S(C)(=O)=O)c4)n3)cc21 [Compound 306] | 
